Results from patent US10822337B2, “TGF-β inhibitorC” (Rigel Pharmaceuticals, Inc., priority 2015, dated 2020).

Columns and labels:
[1] = tested on: TGF-β signaling (TGF-β pSMAD, MPC-11); test: AlphaScreen SureFire SMAD3 (p-Ser423/425) assay, inhibition of TGF-β signaling; assay type: cell-based; details: Mus musculus, p-SMAD-3 (Ser423/425) in cell lysate after TGF-β stimulation
How it was run: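 Cells in collagen-coated plates were pretreated about 10 minutes with three-fold DMSO serial dilutions of compound, then stimulated with TGF-β. They were lysed with about 25 μL 1× Lysis Buffer. Lysates in 384-well plates were incubated protected from light with Acceptor bead mix for 2 hours and Donor bead mix for 1½ hours. p-SMAD-3 (Ser423/425) was read on Synergy-4 or Enspire using AlphaScreen pSMAD3 settings.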

[2] = tested on: GDF8 signaling (GDF pSMAD, MPC11); test: AlphaScreen SureFire SMAD3 (p-Ser423/425) assay, inhibition of GDF8 signaling; assay type: cell-based; details: Mus musculus, MPC-11, p-SMAD-3 (Ser423/425) in cell lysate after GDF8 stimulation

IC50 [1] [nM] | IC50 [2] [nM] | SMILES
376 | 78.7 | Fc1ccc(F)c(-c2nn3c(c2-c2ccc4ncsc4c2)CCC3)c1 [Compound 195, 6-(2-(2,5-Difluorophenyl)-5,6-dihydro-4H-pyrrolo[1,2-b]pyrazol-3-yl)benzo[d]thiazole]
5260 | 862 | Fc1ccc(F)c(-c2nn3c(c2-c2ccc4ncccc4c2)CCC3)c1 [Compound 196, 6-(2-(2,5-Difluorophenyl)-5,6-dihydro-4H-pyrrolo[1,2-b]pyrazol-3-yl)quinoline]
608 | 59 | Fc1ccc(F)c(-c2nn3c(c2-c2ccc4nccnc4c2)CCC3)c1 [Compound 197, 6-(2-(2,5-Difluorophenyl)-5,6-dihydro-4H-pyrrolo[1,2-b]pyrazol-3-yl)quinoxaline]
334 | 26.4 | Fc1ccc(F)c(-c2nn3c(c2-c2ccc4ncnn4c2)CCC3)c1 [Compound 198, 6-(2-(2,5-Difluorophenyl)-5,6-dihydro-4H-pyrrolo[1,2-b]pyrazol-3-yl)-[1,2,4]triazolo[1,5-a]pyridine]
1370 | 428 | COc1cnc2ccc(-c3c(-c4cc(F)ccc4F)nn4c3CCC4)cc2n1 [Compound 199, 7-(2-(2,5-difluorophenyl)-5,6-dihydro-4H-pyrrolo[1,2-b]pyrazol-3-yl)-2-methoxyquinoxaline]
952 | 274 | COCCOc1cnc2ccc(-c3c(-c4cc(F)ccc4F)nn4c3CCC4)cc2n1 [Compound 200, 7-(2-(2,5-difluorophenyl)-5,6-dihydro-4H-pyrrolo[1,2-b]pyrazol-3-yl)-2-(2-methoxyethoxy)quinoxaline]
1460 | 225 | Fc1ccccc1-c1nn2c(c1-c1ccc3ncsc3c1)CCC2 [Compound 201, 6-(2-(2-fluorophenyl)-5,6-dihydro-4H-pyrrolo[1,2-b]pyrazol-3-yl)benzo[d]thiazole]

The next lines start with the molecule.

SMILES | IC50 [1] [nM] | IC50 [2] [nM]
Fc1cc(F)c(-c2nn3c(c2-c2ccc4nccn4c2)CCC3)cc1Cl [Compound 188, 6-(2-(5-Chloro-2,4-difluorophenyl)-5,6-dihydro-4H-pyrrolo[1,2-b]pyrazol-3-yl)imidazo[1,2-a]pyridine] | 81.7 | 63
Fc1cc(F)c(-c2nn3c(c2-c2ccc4ncsc4c2)CCC3)cc1Cl [Compound 189, 6-(2-(5-Chloro-2,4-difluorophenyl)-5,6-dihydro-4H-pyrrolo[1,2-b]pyrazol-3-yl)benzo[d]thiazole] | 232 | 130
Fc1cc(F)c(-c2nn3c(c2-c2ccc4ncccc4c2)CCC3)cc1Cl [Compound 190, 6-(2-(5-Chloro-2,4-difluorophenyl)-5,6-dihydro-4H-pyrrolo[1,2-b]pyrazol-3-yl)quinoline] | 872 | 272
Fc1cc(F)c(-c2nn3c(c2-c2ccc4nccnc4c2)CCC3)cc1Cl [Compound 191, 6-(2-(5-Chloro-2,4-difluorophenyl)-5,6-dihydro-4H-pyrrolo[1,2-b]pyrazol-3-yl)quinoxaline] | 212 | 74
Fc1cc(F)c(-c2nn3c(c2-c2ccc4ncnn4c2)CCC3)cc1Cl [Compound 192, 6-(2-(5-Chloro-2,4-difluorophenyl)-5,6-dihydro-4H-pyrrolo[1,2-b]pyrazol-3-yl)-[1,2,4]triazolo[1,5-a]pyridine] | 66 | 43.6
Fc1ccc(F)c(-c2nn3c(c2-c2ccc4cn[nH]c4c2)CCC3)c1 [Compound 193, 6-(2-(2,5-Difluorophenyl)-5,6-dihydro-4H-pyrrolo[1,2-b]pyrazol-3-yl)-1H-indazole] | 2590 | 371
Fc1ccc(F)c(-c2nn3c(c2-c2ccc4nccn4c2)CCC3)c1 [Compound 194, 6-(2-(2,5-Difluorophenyl)-5,6-dihydro-4H-pyrrolo[1,2-b]pyrazol-3-yl)imidazo[1,2-a]pyridine] | 909 | 177
